Measured values reported in paper PMC10893271, “Polymeric Nanoparticles as Oral and Intranasal Peptide Vaccine Delivery Systems: The Role of Shape and Conjugation” (Vaccines, 2024).
No end group written: not given here.

Molecular target: T1, bovine trypsin (Bos taurus, UniProt P00760)
T1 sequence (P00760 24-246): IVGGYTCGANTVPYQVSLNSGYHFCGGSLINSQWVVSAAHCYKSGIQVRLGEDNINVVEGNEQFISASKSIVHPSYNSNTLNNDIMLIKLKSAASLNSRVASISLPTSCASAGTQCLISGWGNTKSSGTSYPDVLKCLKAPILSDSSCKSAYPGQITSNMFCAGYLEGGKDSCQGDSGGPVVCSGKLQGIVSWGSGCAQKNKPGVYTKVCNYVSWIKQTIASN
Assay: In vitro stability against proteolysis
Conditions: bovine trypsin (1000 U/mL stock, 100 µL) with 1 mM CaCl2 in PBS + 400 µL antigen solution (PJ8 1.25 mg/mL in PBS); 37 °C; HPLC with calibration curve

AKFVAAWTLKAAAQAEDKVKQSREAKKQVEKALKQLEDKVQ-NH2 [PJ8]
time to full degradation by trypsin: ≤ 30 min
